Source: patent US5627206A, “Tricyclic inhibitor of matrix metalloproteinases” (Warner-Lambert Company, priority 1995, dated 1997)
pIC50: −log10 of the molar value. Where two headings read alike, the source gives them in different places.

How the values were obtained:
[1] = tested on: experimental allergic encephalomyelitis (EAE); settings: Gijbels et al.; dose dependent; cited from earlier work
[2] = target: T1, GCD (recombinant gelatinase A catalytic domain) (Homo sapiens, UniProt P08253); experiment: Inhibition of GCD (recombinant gelatinase A catalytic domain), thiopeptolide substrate; assay type: biochemical; settings: thiopeptolide substrate Ac-Pro-Leu-Gly-thioester-Leu-Leu-Gly-OEt
T1 construct: propeptide, C-terminal domain and fibronectin-like insert removed; E. coli host likely
T1 sequence (P08253 110-660): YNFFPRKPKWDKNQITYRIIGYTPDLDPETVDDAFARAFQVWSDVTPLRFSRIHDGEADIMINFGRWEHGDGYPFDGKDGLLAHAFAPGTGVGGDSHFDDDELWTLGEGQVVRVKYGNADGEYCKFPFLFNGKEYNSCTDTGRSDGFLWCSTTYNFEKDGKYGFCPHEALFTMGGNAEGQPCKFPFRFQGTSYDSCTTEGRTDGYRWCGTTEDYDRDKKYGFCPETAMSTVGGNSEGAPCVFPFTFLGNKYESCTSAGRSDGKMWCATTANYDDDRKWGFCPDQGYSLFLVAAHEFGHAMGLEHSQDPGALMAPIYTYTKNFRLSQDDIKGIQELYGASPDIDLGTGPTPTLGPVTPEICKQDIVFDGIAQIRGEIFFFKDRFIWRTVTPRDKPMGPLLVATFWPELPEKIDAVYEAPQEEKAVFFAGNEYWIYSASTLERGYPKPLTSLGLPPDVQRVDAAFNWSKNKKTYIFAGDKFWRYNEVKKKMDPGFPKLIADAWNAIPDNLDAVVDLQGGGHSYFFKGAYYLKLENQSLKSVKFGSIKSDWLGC
Source text: Matrix metalloproteinases share high sequence homology and the catalytic domains of each of the MMPs can be identified by sequence alignment. The gene for the catalytic domain of stromelysin-1, SCD, was constructed by removing the propeptide and C-terminal domain (Ye Q.-Z., Johnson L.L, Hupe D.J., and Baragi V., "Purification and Characterization of the Human Stromelysin Catalytic Domain Expressed in Escherichia coli", Biochemistry,1992;31:11231-11235). The gelatinase A catalytic domain, GCD, was similarly constructed with the additional removal of the fibronectin-like insert which interrupts the catalytic domain (Ye Q.-Z., Johnson L.L, Yu A.E., and Hupe D., "Reconstructed 19 kDa Catalytic Domain of Gelatinase A is an Active Proteinase", Biochemistry, 1995;34:4702-4708). Both truncated proteins cleave synthetic peptide substrates and the natural substrates proteoglycan and gelatin in a manner similar to the full-length enzymes and can be used to identify matrix metalloproteinase inhibitors.
Experiments were carried out with both the full-length enzymes and the catalytic domains. […] IC50 values were determined using a thiopeptolide substrate, Ac-Pro-Leu-Gly-thioester-Leu-Leu-Gly-OEt (Ye Q.-Z., Johnson L.L., Hupe D.J., and Baragi V., "Purification and Characterization of the Human Stromelysin Catalytic Domain Expressed in Escherichia coli", Biochemistry,1992;31:11231-11235). […]

[3] = target: T2, collagenase (full-length native enzyme) (Homo sapiens, UniProt P03956); experiment: Inhibition of collagenase (full-length native enzyme), thiopeptolide substrate; assay type: biochemical
T2 construct: collagenase (full-length native enzyme)
T2 sequence (P03956 100-469): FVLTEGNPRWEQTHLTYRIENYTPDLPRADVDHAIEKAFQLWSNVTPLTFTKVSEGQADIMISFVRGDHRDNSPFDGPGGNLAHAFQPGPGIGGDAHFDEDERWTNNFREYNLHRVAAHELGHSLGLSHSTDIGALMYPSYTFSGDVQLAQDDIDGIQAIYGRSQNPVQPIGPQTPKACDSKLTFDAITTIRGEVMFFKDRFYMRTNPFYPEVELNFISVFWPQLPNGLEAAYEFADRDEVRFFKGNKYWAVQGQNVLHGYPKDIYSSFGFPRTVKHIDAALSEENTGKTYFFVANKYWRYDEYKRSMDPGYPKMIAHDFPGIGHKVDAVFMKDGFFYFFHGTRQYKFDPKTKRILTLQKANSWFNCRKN
Protocol: Experiments were carried out with both the full-length enzymes and the catalytic domains. […] IC50 values were determined using a thiopeptolide substrate, Ac-Pro-Leu-Gly-thioester-Leu-Leu-Gly-OEt (Ye Q.-Z., Johnson L.L., Hupe D.J., and Baragi V., "Purification and Characterization of the Human Stromelysin Catalytic Domain Expressed in Escherichia coli", Biochemistry,1992;31:11231-11235). […] IC50 values for gelatinase B, and collagenase, were >100 μM.

[4] = tested on: EAE Rats; experiment: EAE Lewis rat acute model, Protocol 2 (alternate-day oral dosing Day 0-14); assay type: in vivo; settings: for Effect on EAE Rats (≥Paresis/Total): CFA + MBP control 5/7
Protocol: (§1) Female Lewis rats were purchased from Harlan Sprague-Dawley (Indianapolis, IN) and were used at 8 to 10 weeks of age. Active EAE was induced by injection of 0.05 mL emulsion of myelin basic protein (MBP) with complete Freund's adjuvant (CFA), containing 25 μg guinea pig MBP and 100 μg Mycobacterium butyricum (Difco Laboratories, Detroit, MI) into one hind footpad. Immunized rats were observed daily for clinical signs of EAE and scored as follows: 0, no symptoms; 1, loss of tail tonicity; 2, paresis; 3, hind limb paralysis, often accompanied by incontinence; and 4, death. Formalin-fixed brain slice sections were stained with hematoxylin-eosin and evaluated microscopically for perivascular and parenchymal infiltration. Compound was administered by gavage as a solution in sterile saline in a volume of 500 μL. […] Several different protocols were used to define the efficacy and timing requirements for potency.
Controls run in parallel included CFA only and MBP in CFA. N=4 for treatment groups. N=8 for controls.

[5] = tested on: leukocyte migration across the blood-brain barrier; experiment: Histology of brain slices from Protocol 1 EAE animals; assay type: in vivo, Lewis rat; settings: 50 mg/kg daily dosing schedule
Protocol: The activity of Example 2 in suppressing the inflammatory disease associated with EAE was tested using the Lewis rat acute model. Female Lewis rats were purchased from Harlan Sprague-Dawley (Indianapolis, IN) and were used at 8 to 10 weeks of age. Active EAE was induced by injection of 0.05 mL emulsion of myelin basic protein (MBP) with complete Freund's adjuvant (CFA), containing 25 μg guinea pig MBP and 100 μg Mycobacterium butyricum (Difco Laboratories, Detroit, MI) into one hind footpad. Immunized rats were observed daily for clinical signs of EAE and scored as follows: 0, no symptoms; 1, loss of tail tonicity; 2, paresis; 3, hind limb paralysis, often accompanied by incontinence; and 4, death. Formalin-fixed brain slice sections were stained with hematoxylin-eosin and evaluated microscopically for perivascular and parenchymal infiltration. Compound was administered by gavage as a solution in sterile saline in a volume of 500 μL. The dose of 50 mg/kg typically required 7.5 mg of compound per rat. Several different protocols were used to define the efficacy and timing requirements for potency.

[6] = tested on: EAE Rats; experiment: EAE Lewis rat acute model, Protocol 1 (daily oral dosing Day 0-14); assay type: in vivo
Protocol: as §1
Protocol 1: Compound was administered daily at 50 mg/kg beginning on Day 0 and continuing through Day 14, with MBP in CFA administered on Day 0 also. […] N=5 for all groups.

[7] = tested on: Mycobacterium footpad edema; experiment: Mycobacterium footpad edema assay (MFE); assay type: in vivo, Wistar rats; settings: all values of Table IV (2, 10, 50 mg/kg)
Protocol: (§2) The activity of Example 2 as a general inhibitor of inflammation was tested using the Mycobacterium footpad edema assay (MFE) in Wistar rats. Compound was administered daily by gavage at 2 mg/kg, 10 mg/kg, or 50 mg/kg.
Male outbred Wistar rats (110-125 g, Charles River Labs, Portage, Mich.) were used in this study. Rats were housed for a minimum of 1 week before use. Food and water were supplied ad libitum. Foot pad edema was induced following the method described by Martel R.R. and Klicius J., "Comparisons in rats of the antiinflammatory and gastric irritant effects of etodolac with several clinically effective antiinflammatory drugs", Agents and Actions, 1982;12:295. […] Swelling was assessed on the third day by subtracting the initial volume (determined immediately following the Mycobacterium injection) from the final volume of the treated paw. Paw volume was determined by mercury plethysmography. The percent inhibition of edema achieved in each compound-treated group was determined by comparison with swelling in the vehicle-treated group and the ID50 values were determined by regression analysis. Statistical significance between experimental groups was evaluated using a Student's t-test.

[8] = Plasma concentrations after oral dosing; assay type: in vivo, Wistar rats; settings: for Cmax: read-out: plasma concentration (Cmax)
Protocol: as §2, with “mg/kg. […] The bioavailability of this compound is therefore well in excess of the effective range of gelatinase A inhibition determined in the in vitro assays.” for “mg/kg.”

Row | Structure (SMILES) | effect on development or clinical expression of EAE [1] | pIC50 [2] | pIC50 [3] | Effect on EAE Rats (≥Paresis/Total) ([4]; CFA + MBP + Example 2, 10 mg/kg alternate days) | Effect on EAE Rats (≥Paresis/Total) ([4]; CFA + MBP + Example 2, 50 mg/kg alternate days) | significance (p) of decrease in disease severity ([4]; Day 15, 10 or 50 mg/kg alternate days) | CNS inflammation [5] | cuff formation [5] | leukocyte migration across the blood-brain barrier [5] | average scores for the treated group ([6]; 50 mg/kg daily, Day 0 through Day 14) | percentage of animals responding (total inhibition or reduction of symptoms) ([6]; 50 mg/kg daily, Day 0 through Day 14, N=5) | Effect on EAE Rats (≥Paresis/Total) ([6]; CFA + Example 2 (no MBP), 50 mg/kg daily oral from Day 0) | Effect on EAE Rats (≥Paresis/Total) ([6]; CFA + MBP + Example 2, 50 mg/kg daily oral from Day 0, CFA + MBP control 5/5) | statistical significance of inhibition of the inflammatory response [7] | Cmax and AUC(0-4) dose dependence ([8]; 2, 10, 50 mg/kg) | Cmax ([8]; rat, plasma, po, 2-mg/kg dose) | Cmax ([8]; rat, plasma, po, 10-mg/kg dose) | Cmax ([8]; rat, plasma, po, 50-mg/kg dose) | Tmax ([8]; rat, plasma, po, post-treatment, read-out: time of peak plasma concentration) | plasma concentration decline ([8]; through the subsequent 4 hours after peak)
1 | CNC(=O)[C@H](Cc1c[nH]c2ccccc12)NC(=O)[C@@H](CC(=O)NO)CC(C)C [GM6001] | suppressed the development or reversed the clinical expression of experimental allergic encephalomyelitis (EAE) in a dose dependent manner | – | – | – | – | – | – | – | – | – | – | – | – | – | – | – | – | – | – | –
2 | O=C(O)CCC(=NO)c1ccc2oc3ccccc3c2c1 [Example 2, 4-Dibenzofuran-2-yl-4-hydroximino-butyric acid] | – | 7.40 | < 4.00 | 0/4 | 0/4 | ≤ 0.01 | little CNS inflammation | no cuff formation | completely prevented | substantially reduced | 100% | 0/5 | 1/5 | statistically significant | increase proportionately with dose | 4.62 µM | 38.8 µM | 163 µM | 1 h | declined mono-exponentially
